Values of other authors, collected in patent US7125886B2, “5-HT3 receptor antagonists and methods of use” (Aryx Therapeutics, priority 2002, dated 2006).

What was measured:
[1] = received by the FDA
[2] = up to 3 months of treatment; versus placebo and mebeverine
[3] = at least 12 weeks of treatment, patients with IBS
[4] = molecular target: T1, 5-HT3 receptor (Homo sapiens, UniProt P46098)
T1 sequence (P46098 24-478): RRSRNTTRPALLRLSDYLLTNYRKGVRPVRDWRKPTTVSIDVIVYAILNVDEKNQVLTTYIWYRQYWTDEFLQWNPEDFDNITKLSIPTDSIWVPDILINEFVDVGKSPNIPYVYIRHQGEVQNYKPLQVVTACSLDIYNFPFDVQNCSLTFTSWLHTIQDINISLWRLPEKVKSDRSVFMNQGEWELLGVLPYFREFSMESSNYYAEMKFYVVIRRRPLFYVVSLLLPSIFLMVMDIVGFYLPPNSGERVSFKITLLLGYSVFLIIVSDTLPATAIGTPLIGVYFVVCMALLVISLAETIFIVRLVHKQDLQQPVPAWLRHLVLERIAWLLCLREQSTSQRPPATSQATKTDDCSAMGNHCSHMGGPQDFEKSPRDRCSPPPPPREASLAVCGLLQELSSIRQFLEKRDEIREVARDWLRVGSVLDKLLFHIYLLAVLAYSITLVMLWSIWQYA

In the case of `Cc1[nH]cnc1CN1CCc2c(c3ccccc3n2C)C1=O` [Alosetron, 2,3,4,5-tetrahydro-5-methyl-2-[(5-methyl-1H-imidazol-4-yl)methyl]-1H-pyrido [4,3-b]indol-1-one], the “reports of deaths associated with alosetron” value [1] is given as 3, the “improving perception of visceral pain, spasms and diarrhea” value [2] is given as “significantly superior” and the “greater drug exposure in females than males” value (females compared with males) is given as 60%. For the same compound, the “mean peak plasma concentration higher in females” value (females compared with males) was 45–100%, the half-life (in vivo) was 1.5 h and the oral bioavailability (oral) was “approximately 60%”. For the same compound, the “constipation, patients with adverse event” value [3] was 28%.

For `Cc1[nH]cnc1CN1CCc2c(c3cccc(O)c3n2C)C1=O` [6-Hydroxy-alosetron], the “potency relative to alosetron” value [4] is listed as “twice as potent as alosetron”.

For `Cc1[nH]cnc1CN1CCc2c(c3cccc(O[C@@H]4O[C@H](C(=O)O)[C@@H](O)[C@H](O)[C@H]4O)c3n2C)C1=O` [6-OH-alosetron glucuronide], the “5-HT3 receptor binding affinity” value [4] is given as “potent”.
